The record followed here is EPA's ToxRefDB 2.

Structures are written as SMILES. Where only a bound is given, the exact number is not on record here.

For data set [1], the system named is rat. As to conditions: Subchronic oral toxicity in rodents, wistar, Gavage/Intubation, dose end: 3 month, group: systemic.
Data set [2] relates to rat. Conditions: Fertility (Segment I), wistar, Oral, Gavage/Intubation, dose end: 7 GD.
Data set [3] concerns rat. As to conditions: Subchronic oral toxicity in rodents, fischer, Feed, dose end: 90 day, group: systemic, systemic / organ weight / kidney / absolute + systemic / organ weight / kidney / relative to body weight + systemic / pathology gross / ….
In data set [4] the test system is dog. As to conditions: Subchronic oral toxicity in nonrodent, beagle, Capsule, dose end: 98 day, group: systemic.
The subject of data set [5] is rat. As to conditions: Subchronic oral toxicity in rodents, sprague dawley, Feed, dose end: 13 week, group: systemic.
Data set [6] concerns dog. Conditions: Subchronic oral toxicity in nonrodent, beagle, Capsule, dose end: 102 day, group: systemic.
The test system of data set [7] is rat. Conditions: Neurotoxicity screening battery; sprague dawley; Oral; Feed; dose end: 90 day; group: cannot be grouped; systemic / in life observation / body weight / body weight + systemic / in life observation / food consumption / food consumption + systemic….
The mark [8] stands for this setting: systemic / clinical chemistry / alkaline phosphatase (alp/alk) / alkaline phosphatase (alp/alk) + systemic / clinical chemistry / calcium / ….
Setting [9] is: systemic / clinical chemistry / glucose / glucose + systemic / hematology / hemoglobin (hgb) / hemoglobin (hgb) + systemic / hematology / ….
Where [10] appears, read: group: maternal, reproductive / reproductive performance / estrous cycle / corpora lutea + reproductive / reproductive performance / implantations / ….
The mark [11] stands for this setting: group: parental, systemic / in life observation / body weight / body weight + systemic / in life observation / clinical signs / ataxia + systemic / in life ….
[12] abbreviates: systemic / clinical chemistry / alanine aminotransferase (alt/sgpt) / alanine aminotransferase (alt/sgpt).
Setting [13] is: systemic / pathology microscopic / kidney / inclusion body intracytoplasmic.

One may read the LOAEL as the lowest dose or exposure tested at which an adverse effect was seen. Usually NOAEL stands for the highest tested level that showed no adverse finding. Turning to `CC(C)c1ccc(C(=O)N=C(N)N)cc1S(C)(=O)=O.CS(=O)(=O)O` [Cariporide mesylate], the LOAEL with rat [1] (setting [8]) is over 1000 mg/kg/day; with rat [2] (setting [10]), over 400 mg/kg/day; in the data set with rat [2] (setting [11]), over 400 mg/kg/day. The NOAEL in the data set with rat [1] (setting [8]) was at least 1000 mg/kg/day; in the data set with rat [2] (setting [10]), at least 400 mg/kg/day; with rat [2] (setting [11]) it was at least 400 mg/kg/day. The LEL turned out to be 400 mg/kg/day in the data set on rat [1] (setting [9]); 400 mg/kg/day with rat [2] (setting [10]); 100 mg/kg/day with rat [2] (group: parental, systemic / in life observation / clinical signs / salivation). The NEL in the data set with rat [1] (setting [9]) is under 400 mg/kg/day; in the data set on rat [2] (setting [10]), 100 mg/kg/day; with rat [2] (setting [11]) it was 25 mg/kg/day.
As to `N#Cc1c(Cl)c(Cl)c(Cl)c(C#N)c1Cl` [Chlorothalonil], the LEL in the data set with rat [3] is 175 mg/kg/day; with dog [4] (setting [12]), 15 mg/kg/day; in the data set with rat [5] (setting [13]), 1.5 mg/kg/day; with dog [6] (systemic / clinical chemistry / glucose / glucose), 15 mg/kg/day; in the data set on rat [7], 232 mg/kg/day. Besides, the LOAEL is 175 mg/kg/day in the data set with rat [3]; 150 mg/kg/day with dog [4] (systemic / in life observation / body weight / body weight gain); 3 mg/kg/day in the data set on rat [5] (setting [13]); 50 mg/kg/day in the data set with dog [6] (systemic / clinical chemistry / glucose / glucose + systemic / organ weight / liver / absolute + systemic / urinalysis / ph / ph); 232 mg/kg/day in the data set on rat [7]. Also, the NEL in the data set with rat [3] was under 175 mg/kg/day; in the data set on dog [4] (setting [12]) it was under 15 mg/kg/day; in the data set with rat [5] (setting [13]), under 1.5 mg/kg/day; with dog [6] (systemic / clinical chemistry / glucose / glucose + systemic / urinalysis / ph / ph + systemic / hematology / erythrocyte (rbc) count …), 5 mg/kg/day; with rat [7] it was 22 mg/kg/day. The NOAEL in the data set with rat [3] was under 175 mg/kg/day; in the data set on dog [4] (systemic / in life observation / body weight / body weight gain + systemic / clinical chemistry / alanine aminotransferase (alt/sgpt) / …), 15 mg/kg/day; with rat [5] (systemic / pathology microscopic / kidney / inclusion body intracytoplasmic + systemic / pathology microscopic / kidney / hyperplasia), 1.5 mg/kg/day; with dog [6] (systemic / clinical chemistry / glucose / glucose + systemic / organ weight / liver / absolute + systemic / urinalysis / ph / ph + systemic…), 15 mg/kg/day; with rat [7], 22 mg/kg/day.
